Legend:
[1] = In-vivo pharmacokinetics in dogs, oral administration; set-up: species or system male Beijing Marshall beagles; conditions: for AUC(0-inf) / Cmax / half-life: male, beagle, dog, oral 10 mg/kg, plasma; for F: oral 10 mg/kg vs intravenous 1 mg/Kg
Method: In this experimental example, the in-vivo pharmacokinetic evaluation was made for dogs by intravenous injection and oral administration.
Experimental methods and conditions: male Beijing Marshall beagles, 12 to 18 months old; the beagles were subjected to administration half an hour after feeding; 5 min, 15 min, 30 min, 1 hr, 2 hr, 4 hr, 8 hr, 24 hr, 48 hr and 72 hr after the beagles were subjected to a single intravenous injection of 1 mg/Kg of a compound to be tested (solvent 5% DMSO/10% Solutol/85% Saline), or 15 min, 30 min, 1 hr, 2 hr, 4 hr, 6 hr, 8 hr, 24 hr, 48 hr and 72 hr after the beagles were subjected to oral intragastric administration of 10 mg/kg (solvent 5% DMSO/10% Solutol/85% Saline), blood was collected from orbits, not less than 50 μL of each sample was collected, and heparin sodium was used for anticoagulation; the collected samples were placed on ice, and the plasma was centrifugally separated within 1 hour for testing. The drug concentration in the plasma was detected by liquid chromatography tandem mass spectrometry (LC/MS/MS), and the pharmacokinetic parameters were calculated by Phoenix WinNonlin software. Embodiment 82 in CN110612294 A was taken as a control sample 1.

[2] = In-vivo pharmacokinetics in mice, oral administration; set-up: species or system male CD1 mice; conditions: for AUC(0-inf) / Cmax / half-life: male, CD1, mouse, oral 10 mg/kg, plasma; for F: oral 10 mg/kg vs intravenous 1 mg/Kg
Method: In this experimental example, the in-vivo pharmacokinetic evaluation was made for mice by intravenous injection and oral administration.
Experimental methods and conditions: male CD1 mice, 6 to 8 weeks old; all animals had free access to food and water; 5 min, 15 min, 30 min, 1 hr, 2 hr, 4 hr, 8 hr and 24 hr after the mice were subjected to a single intravenous injection of 1 mg/Kg of a compound to be tested (solvent 5% DMSO/15% Solutol/80% Saline) (saline in the present application all means a saline solution), or 15 min, 30 min, 1 hr, 2 hr, 4 hr, 6 hr, 8 hr and 24 hr after the mice were subjected to oral intragastric administration of 10 mg/kg (solvent 5% DMSO/10% Solutol/85% Saline), blood was collected from orbits, not less than 50 μL of each sample was collected, and heparin sodium was used for anticoagulation; the collected samples were placed on ice, and the plasma was centrifugally separated within 1 hour for testing. The drug concentration in the plasma was detected by liquid chromatography tandem mass spectrometry (LC/MS/MS), and the pharmacokinetic parameters were calculated by Phoenix WinNonlin software. Embodiment 82 in CN110612294 A was taken as a control sample 1.

[3] = tested on: VCaP cells; assay: Inhibitory effect on VCaP cell proliferation (Cell Titer Glo); format: cell-based; conditions: Homo sapiens, 144 h; for IC50: VCaP cells, 5% FBS and 0.1 nM R1881, 6 days; for Emax: maximum degree of VCaP cell proliferation inhibition, 6 days
Method: A tumor cell line Vcap (ATCC Cat. No. CRL-2876) was respectively cultured with DMEM (Gibco Cat. No. 11965-092) medium containing 10% FBS (Gibco Cat. No. 10099-141C). During testing, Vcap cells were replaced with a DMEM culture fluid containing 5% FBS and 0.1 nM R1881 (Sigma Cat. No. R0908). The assay method was as follows:
Vcap cells were seeded to a 384-well plate (Perkin Elmer Cat. No. 6007460) at a cell density of 1200 cells/well and a volume of 20 μL/well; after the cells were incubated overnight in a carbon dioxide incubator (Thermo), the prepared compound solutions with different concentrations were added at a volume of 5 μL/well; meanwhile, a corresponding solvent was provided as a control; after the cells were continuously incubated in the incubator for 6 days, the cell plate and the contents thereof were equilibrated to room temperature; 25 μL of a Cell Titer Glor (Promega Cat. No. G7573) reagent was added to each well; after vibration and uniform mixing, incubation in the dark was performed for 10-30 minutes, and a signal value was detected with Envision microplate reader (PerkinElmer).
A percentage inhibition rate of compound-treated wells was calculated through solvent control wells on the plate, GraphPad prism was used to fit the percentage inhibition rate data corresponding to different concentrations, and IC50 value was calculated by a 4-parameter nonlinear logistic formula.
Emax: a maximum degree of VCaP cell proliferation inhibition. IC50: a compound concentration required to achieve half the maximum degree of VCaP cell proliferation inhibition.

Row | AUC(0-inf) [1] | Cmax [1] | half-life [1] | F [1] | AUC(0-inf) [2] | Cmax [2] | half-life [2] | F [2] | IC50 [3] | Structure (SMILES) | Emax [3]
1 | 14100 ng·h/mL | 482 ng/mL | 19.9 h | 44.1% | 18900 ng·h/mL | 1260 ng/mL | 6.22 h | 68.8% | – | CC1(C)[C@H](NC(=O)c2ccc(N3CCC(CN4CCN(c5ccc6c(=O)n(C7CCC(=O)NC7=O)ncc6c5)CC4)CC3)cc2)C(C)(C)[C@H]1Oc1ccc(C#N)c(Cl)c1 (some centres unmarked) [Compound 1] | –
2 | 15400 ng·h/mL | 868 ng/mL | 34.3 h | 33.9% | – | – | – | – | 9.7 nM | CC1(C)[C@H](NC(=O)c2ccc(N3CCC(CN4CCN(c5ccc6c(=O)n([C@H]7CCC(=O)NC7=O)ncc6c5)CC4)CC3)cc2)C(C)(C)[C@H]1Oc1ccc(C#N)c(Cl)c1 [Compound 28A] | 74%
3 | – | – | – | – | 13400 ng·h/mL | 677 ng/mL | 7.91 h | 24.1% | 56 nM | CC1(C)[C@H](NC(=O)c2ccc(N3CCC(CN4CCN(c5ccc6c(=O)n(C7CCC(=O)NC7=O)nc(F)c6c5)CC4)CC3)cc2)C(C)(C)[C@H]1Oc1ccc(C#N)c(Cl)c1 (some centres unmarked) [Compound 29] | 66%
